Reference: PubChem BioAssay (NCI)
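GI50 is the concentration that inhibits growth by half. The concentration for full growth arrest is given as TGI.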

Assays:
Experiment in all cases: NCI-60 cell line screen, 384-well format
786-0 renal = system: 786-0 renal
A549 NSCLC = system: A549 NSCLC
ACHN renal = system: ACHN renal
BT-549 breast = system: BT-549 breast
CAKI-1 renal = system: CAKI-1 renal
CCRF-CEM leukemia = system: CCRF-CEM leukemia
COLO 205 colon = system: COLO 205 colon
DU-145 prostate = system: DU-145 prostate
EKVX NSCLC = system: EKVX NSCLC
HCC-2998 colon = system: HCC-2998 colon
HCT-116 colon = system: HCT-116 colon
HCT-15 colon = system: HCT-15 colon
HL-60(TB) leukemia = system: HL-60(TB) leukemia
HOP-62 NSCLC = system: HOP-62 NSCLC
HOP-92 NSCLC = system: HOP-92 NSCLC
HT29 colon = system: HT29 colon
IGROV1 ovarian = system: IGROV1 ovarian
K-562 leukemia = system: K-562 leukemia
KM12 colon = system: KM12 colon
LOX IMVI melanoma = system: LOX IMVI melanoma
M14 melanoma = system: M14 melanoma
MALME-3M melanoma = system: MALME-3M melanoma
MCF7 breast = system: MCF7 breast
MDA-MB-435 melanoma = system: MDA-MB-435 melanoma
MDA-MB-468 breast = system: MDA-MB-468 breast
MOLT-4 leukemia = system: MOLT-4 leukemia
NCI-H226 lung = system: NCI-H226 lung
NCI-H23 lung = system: NCI-H23 lung
NCI-H460 NSCLC = system: NCI-H460 NSCLC
NCI-H522 lung = system: NCI-H522 lung
NCI/ADR-RES ovarian = system: NCI/ADR-RES ovarian
OVCAR-3 ovarian = system: OVCAR-3 ovarian
OVCAR-4 ovarian = system: OVCAR-4 ovarian
OVCAR-5 ovarian = system: OVCAR-5 ovarian
OVCAR-8 ovarian = system: OVCAR-8 ovarian
PC-3 prostate = system: PC-3 prostate
RPMI-8226 leukemia = system: RPMI-8226 leukemia
RXF 393 renal = system: RXF 393 renal
SF-295 CNS = system: SF-295 CNS
SK-MEL-28 melanoma = system: SK-MEL-28 melanoma
SK-MEL-5 melanoma = system: SK-MEL-5 melanoma
SK-OV-3 ovarian = system: SK-OV-3 ovarian
SN12C renal = system: SN12C renal
SNB-19 CNS = system: SNB-19 CNS
SW-620 colon = system: SW-620 colon
T-47D breast = system: T-47D breast
TK-10 renal = system: TK-10 renal
U251 glioblastoma = system: U251 glioblastoma
UACC-257 melanoma = system: UACC-257 melanoma
UACC-62 melanoma = system: UACC-62 melanoma
UO-31 renal = system: UO-31 renal

Structure (SMILES): Cc1cc(-c2nc(-c3ccc(OC(F)(F)F)cc3)no2)nn1Cc1ccnc(N2CCN(C3CC3)CC2)c1
- GI50 ([…]-0 renal): 4.88 µM
- TGI (786-0 renal): > 100 µM
- GI50 (A549 NSCLC): < 0.01 µM
- TGI (A549 NSCLC): > 100 µM
- GI50 (ACHN renal): 12.6 µM
- TGI (ACHN renal): > 100 µM
- GI50 (BT-549 breast): 2.06 µM
- TGI (BT-549 breast): 35.9 µM
- GI50 (CAKI-1 renal): 14.9 µM
- TGI (CAKI-1 renal): > 100 µM
- GI50 (CCRF-CEM leukemia): < 0.01 µM
- TGI (CCRF-CEM leukemia): < 0.01 µM
- GI50 (COLO 205 colon): 5.77 µM
- TGI (COLO 205 colon): > 100 µM
- GI50 (DU-145 prostate): 20.3 µM
- TGI (DU-145 prostate): > 100 µM
- GI50 (EKVX NSCLC): < 0.01 µM
- TGI (EKVX NSCLC): 62.6 µM
- GI50 (HCC-2998 colon): 4.19 µM
- TGI (HCC-2998 colon): 20.2 µM
- GI50 (HCT-116 colon): < 0.01 µM
- TGI (HCT-116 colon): > 100 µM
- GI50 (HCT-15 colon): 1.44 µM
- TGI (HCT-15 colon): 18.8 µM
- GI50 (HL-60(TB) leukemia): 1.73 µM
- TGI (HL-60(TB) leukemia): 11 µM
- GI50 (HOP-62 NSCLC): < 0.01 µM
- TGI (HOP-62 NSCLC): 20.7 µM
- GI50 (HOP-92 NSCLC): 3.45 µM
- TGI (HOP-92 NSCLC): > 100 µM
- GI50 (HT29 colon): 2.43 µM
- TGI (HT29 colon): 12.3 µM
- GI50 (IGROV1 ovarian): 9.15 µM
- TGI (IGROV1 ovarian): > 100 µM
- GI50 (K-562 leukemia): < 0.01 µM
- TGI (K-562 leukemia): 44.9 µM
- GI50 (KM12 colon): 5.2 µM
- TGI (KM12 colon): 70.4 µM
- GI50 (LOX IMVI melanoma): < 0.01 µM
- TGI (LOX IMVI melanoma): 14.1 µM
- GI50 (M14 melanoma): 2.13 µM
- TGI (M14 melanoma): 7.15 µM
- GI50 (MALME-3M melanoma): 4.82 µM
- TGI (MALME-3M melanoma): 18.3 µM
- GI50 (MCF7 breast): 0.47 µM
- TGI (MCF7 breast): 15.4 µM
- GI50 (MDA-MB-435 melanoma): 5.96 µM
- TGI (MDA-MB-435 melanoma): > 100 µM
- GI50 (MDA-MB-468 breast): < 0.01 µM
- TGI (MDA-MB-468 breast): < 0.01 µM
- GI50 (MOLT-4 leukemia): < 0.01 µM
- TGI (MOLT-4 leukemia): 7.05 µM
- GI50 (NCI-H226 lung): 4.01 µM
- TGI (NCI-H226 lung): > 100 µM
- GI50 (NCI-H23 lung): < 0.01 µM
- TGI (NCI-H23 lung): 84.8 µM
- GI50 (NCI-H460 NSCLC): < 0.01 µM
- TGI (NCI-H460 NSCLC): < 0.01 µM
- GI50 (NCI-H522 lung): < 0.01 µM
- TGI (NCI-H522 lung): > 100 µM
- GI50 (NCI/ADR-RES ovarian): < 0.01 µM
- TGI (NCI/ADR-RES ovarian): > 100 µM
- GI50 (OVCAR-3 ovarian): 6.51 µM
- TGI (OVCAR-3 ovarian): > 100 µM
- GI50 (OVCAR-4 ovarian): 28.7 µM
- TGI (OVCAR-4 ovarian): > 100 µM
- GI50 (OVCAR-5 ovarian): 15.7 µM
- TGI (OVCAR-5 ovarian): 86.1 µM
- GI50 (OVCAR-8 ovarian): < 0.01 µM
- TGI (OVCAR-8 ovarian): > 100 µM
- GI50 (PC-3 prostate): 2.99 µM
- TGI (PC-3 prostate): 66.9 µM
- GI50 (RPMI-8226 leukemia): < 0.01 µM
- TGI (RPMI-8226 leukemia): > 100 µM
- GI50 (RXF 393 renal): < 0.01 µM
- TGI (RXF 393 renal): < 0.01 µM
- GI50 (SF-295 CNS): > 100 µM
- TGI (SF-295 CNS): > 100 µM
- GI50 (SK-MEL-28 melanoma): 12.9 µM
- TGI (SK-MEL-28 melanoma): 28.7 µM
- GI50 (SK-MEL-5 melanoma): < 0.01 µM
- TGI (SK-MEL-5 melanoma): 2.24 µM
- GI50 (SK-OV-3 ovarian): < 0.01 µM
- TGI (SK-OV-3 ovarian): > 100 µM
- GI50 (SN12C renal): 7.01 µM
- TGI (SN12C renal): > 100 µM
- GI50 (SNB-19 CNS): 10.9 µM
- TGI (SNB-19 CNS): > 100 µM
- GI50 (SW-620 colon): 12.1 µM
- TGI (SW-620 colon): 89.7 µM
- GI50 (T-47D breast): < 0.01 µM
- TGI (T-47D breast): 1.5 µM
- GI50 (TK-10 renal): 40.9 µM
- TGI (TK-10 renal): > 100 µM
- GI50 (U251 glioblastoma): 1.83 µM
- TGI (U251 glioblastoma): > 100 µM
- GI50 (UACC-257 melanoma): < 0.01 µM
- TGI (UACC-257 melanoma): 3.31 µM
- GI50 (UACC-62 melanoma): 9.33 µM
- TGI (UACC-62 melanoma): 21.8 µM
- GI50 (UO-31 renal): 15.7 µM
- TGI (UO-31 renal): > 100 µM
